Assay results: patent US6737383B1, “Herbicidal oxadiazolidines” (priority 1999, dated 2004)

Experiments:
[1] = test system: soybean; assay: Test B pre/postemergence soybean; format: in vivo, Glycine max
Procedure, shortened: (§1)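 Herbicidal effect was estimated by eye on a ten-point control scale after plants spent twelve to sixteen days in a greenhouse following soil or foliar treatment. Foliar sprays targeted plants at one to four leaves; all doses were formulated in a non-phytotoxic solvent with surfactant.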

[2] = test system: winter barley; assay: Test E winter barley; format: in vivo, Hordeum vulgare; conditions: Preemergence
[3] = test system: green foxtail; assay: Test E green foxtail; format: in vivo, Setaria viridis; conditions: Preemergence
[4] = test system: winter wheat; assay: Test E winter wheat; format: in vivo, Triticum aestivum; conditions: Preemergence
[5] = test system: common pursiane; assay: Test D common purslane; format: in vivo, Portulaca oleracea; conditions: Preemergence, 0 to 100 scale
Excerpt: (§2) Seeds, tubers, or plant parts of Alexandergrass (Brachiaria plantaginea), bermuda-grass (Cynodon dactylon), common pursiane (Portulaca oleracea), common ragweed (Ambrosia elatior), common groundsel (Senecio vulgaris), dallisgrass (Paspalum dilatatum), goosegrass (Eleusine indica), guineagrass (Panicum maximum), itchgrass (Rottboellia exaltata), Johnson grass (Sorghum halepense), large crabgrass (Digitaria sanguinalis), pitted morningglory (Ipomoea lacunosa), purple nutsedge (Cyperus rotundus), sandbur (Cenchrus echinatus), sourgrass (Trichachne insularis), Spanishneedles (Bidens bipinnata), surinam grass (Brachiaria decumbens) and tall mallow (Malva sylvestris) were planted into greenhouse pots of flats containing greenhouse planting medium. Plant species were grown in separate pots or individual compartments. Preemergence applications were made within one day of planting the seed or plant part.
(§3) Test chemicals were formulated in a non-phytotoxic solvent mixture which included a surfactant and applied preemergence to the surface of the pot containing seeds in a sandy loam soil. Untreated control pots and treated pots were placed in the greenhouse for growth and visually evaluated for injury 14 to 21 days after herbicide application. Plant response ratings, summarized in Table C, are based on a 0 to 100 scale where 0 is no injury and 100 is complete control. A dash (−) response means no test result.

[6] = test system: velvetleaf; assay: Test B pre/postemergence velvetleaf; format: in vivo, Abutilon theophrasti; conditions: for Velvetleaf plant response rating (0 to 10 scale): 0 is no effect
Procedure, shortened: as §1

[7] = test system: blackgrass; assay: Test E blackgrass; format: in vivo, Alopecurus myosuroides; conditions: Preemergence
[8] = test system: tall mallow; assay: Test D tall mallow; format: in vivo, Malva sylvestris; conditions: Preemergence, 0 to 100 scale
Excerpt: as §2, §3

[9] = test system: winter wheat; assay: Test E winter wheat; format: in vivo, Triticum aestivum; conditions: Postemergence
Procedure, shortened: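 For postemergence, plants at the 1- to 4-leaf stage, in a 60:40 mix of sandy loam and potting mix, treated with compound formulated in a surfactant-containing non-phytotoxic solvent. Visual assessment versus untreated controls followed roughly 21–28 days in the greenhouse.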

[10] = test system: Italian ryegrass; assay: Test E Italian ryegrass; format: in vivo, Lolium multiflorum; conditions: Preemergence
[11] = test system: guineagrass; assay: Test D guineagrass; format: in vivo, Panicum maximum; conditions: Preemergence, 0 to 100 scale
Procedure, shortened: (§4)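 Seeds were sown in greenhouse pots, one species per pot or compartment. Compounds were in a non-phytotoxic solvent mixture with surfactant; preemergence applications went on the sandy loam surface within one day of planting. Injury was rated visually after 14 to 21 days, 0 (none) to 100 (complete control).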

[12] = test system: bermuda-grass; assay: Test D bermudagrass; format: in vivo, Cynodon dactylon; conditions: Preemergence, 0 to 100 scale
Excerpt: as §2, §3

[13] = test system: cocklebur; assay: Test B pre/postemergence cocklebur; format: in vivo, Xanthium strumarium
Procedure, shortened: as §1

[14] = test system: duck salad; assay: Test B flood test duck salad; format: in vivo, Heteranthera limosa
Procedure, shortened: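 Each value is a visual injury score relative to controls, with 10 meaning complete control and 0 no effect. Evaluation took place twelve to sixteen days after the 2-leaf-stage plants were treated and kept in the greenhouse.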

[15] = test system: wild oat; assay: Test E wild oat; format: in vivo, Avena fatua; conditions: Preemergence
[16] = test system: pitted morningglory; assay: Test D pitted morningglory; format: in vivo, Ipomoea lacunosa; conditions: Preemergence, 0 to 100 scale
Procedure, shortened: as §4

[17] = Postemergence, Rate 125 g/ha, scale of 0 to 10 where 0 is no effect and 10 is complete control
[18] = Preemergence, Rate 62 g/ha, scale 0 to 10 (0 no effect, 10 complete control)
[19] = Preemergence, Rate 125 g/ha, scale 0 to 10 (0 no effect, 10 complete control)
[20] = Preemergence, Rate 250 g/ha, scale of 0 to 10 where 0 is no effect and 10 is complete control
[21] = Preemergence, Rate 500 g/ha, scale 0 to 10 (0 no effect, 10 complete control)
[22] = Rate 62 g/ha, Postemergence, scale of 0 to 10 where 0 is no effect and 10 is complete control
[23] = Rate 250 g/ha, Postemergence, scale 0 to 10, 0 is no effect, 10 is complete control
[24] = Rate 500 g/ha, Postemergence, scale 0 to 10, 0 no effect, 10 complete control
[25] = Rate 125 g/ha, 0 to 100 scale (0 no effect, 100 complete control)
[26] = Rate 500 g/ha, 0 to 100 scale where 0 is no effect and 100 is complete control
[27] = Rate 16 g/ha, 0 no injury, 100 complete control
[28] = Rate 32 g/ha, 0 no injury, 100 complete control
[29] = Rate 64 g/ha, 0 no injury, 100 complete control
[30] = Rate 125 g/ha, 0 no injury, 100 complete control
[31] = Preemergence, Rate 125 g/ha, 10 is complete control
[32] = Preemergence, Rate 125 g/ha, 0 is no effect, 10 is complete control
[33] = Preemergence, Rate 250 g/ha, scale 0 to 10, 0 is no effect, 10 is complete control
[34] = Rate 500 g/ha, Postemergence, scale 0 to 10

C=CCn1c(=O)on(C(=O)N(c2ccc(Cl)cc2)C(C)C)c1=O [Compound 105]
Soybean plant response rating [1, 17]: 1
Soybean plant response rating [1, 18]: 0
Plant response rating, Soybean [1, 19]: 0
Plant response rating, Soybean [1, 20]: 0
Soybean plant response rating [1, 21]: 0
Soybean plant response rating [1, 22]: 1
Plant response rating, Soybean [1, 23]: 3
Soybean plant response rating [1, 24]: 6
Plant response rating, Barley (winter) [2, 25]: 0
Plant response rating, Barley (winter) ([2]; Rate 250 g/ha, 0 to 100 scale): 0
Plant response rating, Barley (winter) [2, 26]: 10
Plant response rating, Green foxtail [3, 25]: 55
Plant response rating, Green foxtail ([3]; Rate 250 g/ha, 0 to 100 scale): 90
Plant response rating, Green foxtail [3, 26]: 100
Plant response rating, Wheat (winter) [4, 25]: 10
Plant response rating, Wheat (winter) ([4]; Rate 250 g/ha, 0 to 100 scale): 0
Plant response rating, Wheat (winter) [4, 26]: 10
Plant response rating, C. purslane [5, 27]: 0
Plant response rating, C. purslane [5, 28]: 0
Plant response rating, C. purslane [5, 29]: 0
Plant response rating, C. purslane [5, 30]: 0
Plant response rating, C. purslane ([5]; Rate 250 g/ha): 0
Plant response rating, C. purslane ([5]; Rate 500 g/ha): 0
Velvetleaf plant response rating [6, 17]: 0
Velvetleaf plant response rating [6, 18]: 0
Velvetleaf plant response rating (0 to 10 scale) [6, 31]: 4
Plant response rating, Velvetleaf [6, 20]: 5
Velvetleaf plant response rating [6, 21]: 6
Velvetleaf plant response rating [6, 22]: 0
Plant response rating, Velvetleaf [6, 23]: 3
Velvetleaf plant response rating [6, 24]: 4
Plant response rating, Blackgrass [7, 25]: 20
Plant response rating, Blackgrass ([7]; Rate 250 g/ha, 0 to 100 scale): 50
Plant response rating, Blackgrass [7, 26]: 50
Plant response rating, Tall Mallow [8, 27]: 0
Plant response rating, Tall Mallow [8, 28]: 0
Tall Mallow plant response rating [8, 29]: 0
Plant response rating, Tall Mallow [8, 30]: 40
Tall Mallow plant response rating [8, 30]: 45
Plant response rating, Tall Mallow ([8]; Rate 250 g/ha): 75
Plant response rating, Tall Mallow ([8]; Rate 500 g/ha): 75
Plant response rating, Wheat (winter) ([9]; Rate 125 g/ha, 0 to 100 scale): 10
Plant response rating, Wheat (winter) ([9]; Rate 250 g/ha, 0 to 100 scale (0 no effect, 100 complete control)): 10
Plant response rating, Wheat (winter) ([9]; Rate 500 g/ha, 0 to 100 scale, 0 no effect, 100 complete control): 20
Plant response rating, I. Ryegrass [10, 25]: 30
Plant response rating, I. Ryegrass ([10]; Rate 250 g/ha, 0 to 100 scale): 30
Plant response rating, I. Ryegrass [10, 26]: 85
Plant response rating, Guineagrass [11, 27]: 40
Plant response rating, Guineagrass [11, 28]: 85
Plant response rating, Guineagrass [11, 29]: 98
Plant response rating, Guineagrass [11, 30]: 98
Plant response rating, Guineagrass ([11]; Rate 250 g/ha): 100
Plant response rating, Guineagrass ([11]; Rate 500 g/ha): 100
Plant response rating, Bermudagrass [12, 27]: 85
Plant response rating, Bermudagrass [12, 28]: 98
Plant response rating, Bermudagrass [12, 29]: 98
Plant response rating, Bermudagrass [12, 30]: 100
Plant response rating, Bermudagrass ([12]; Rate 250 g/ha): 100
Plant response rating, Bermudagrass ([12]; Rate 500 g/ha): 100
Cocklebur plant response rating [13, 17]: 0
Cocklebur plant response rating ([13]; Postemergence, Rate 250 g/ha, scale 0 to 10, 0 no effect, 10 complete control): 1
Cocklebur plant response rating [13, 18]: 0
Plant response rating, Cocklebur [13, 19]: 0
Plant response rating, Cocklebur [13, 20]: 0
Cocklebur plant response rating [13, 21]: 0
Cocklebur plant response rating [13, 22]: 0
Cocklebur plant response rating [13, 24]: 4
Ducksalad plant response rating ([14]; Postemergence (flood test species), Rate 125 g/ha, scale of 0 to 10 where 0 is no effect and 10 is complete control): 0
Ducksalad plant response rating ([14]; Rate 62 g/ha, Postemergence section, flood test species, scale of 0 to 10 where 0 is no effect and 10 is complete control): 0
Ducksalad plant response rating ([14]; Rate 250 g/ha, headed Pre-emergence (flood test species), scale 0 to 10 (0 no effect, 10 complete control)): 0
Plant response rating, Ducksalad ([14]; Rate 500 g/ha, headed Pre-emergence (flood test species), scale 0 to 10 (0 no effect, 10 complete control)): 0
Ducksalad plant response rating ([14]; Rate 500 g/ha, listed under Postemergence (flood test species), scale 0 to 10, 0 no effect, 10 complete control): 0
Ducksalad plant response rating ([14]; Rate 1000 g/ha, Pre-emergence (as headed), scale 0 to 10): 0
Ducksalad plant response rating ([14]; Rate 2000 g/ha, Pre-emergence (as headed), scale 0 to 10): 0
Ducksalad plant response rating ([14]; flood test, listed under Postemergence, Rate 250 g/ha, scale 0 to 10, 0 no effect, 10 complete control): 0
Plant response rating, Wild oat [15, 25]: 30
Plant response rating, Wild oat [15, 26]: 55
Plant response rating, P. morninglory [16, 27]: 0
Plant response rating, P. morninglory [16, 28]: 0
Plant response rating, P. morninglory [16, 29]: 0
Plant response rating, P. morninglory [16, 30]: 0
Plant response rating, P. morninglory ([16]; Rate 250 g/ha): 0
Plant response rating, P. morninglory ([16]; Rate 500 g/ha): 0

CCCn1c(=O)on(C(=O)N(c2ccc(F)cc2F)C(C)C)c1=O [Compound 130]
Soybean plant response rating [1, 17]: 2
Soybean plant response rating [1, 18]: 0
Soybean plant response rating (0 to 10 scale) [1, 32]: 0
Soybean plant response rating [1, 33]: 3
Soybean plant response rating [1, 21]: 4
Soybean plant response rating [1, 22]: 1
Plant response rating, Soybean [1, 23]: 3
Soybean plant response rating [1, 34]: 5
Plant response rating, C. purslane [5, 29]: 0
Velvetleaf plant response rating [6, 17]: 3
Velvetleaf plant response rating [6, 18]: 5
Velvetleaf plant response rating (0 to 10 scale) [6, 31]: 8
Velvetleaf plant response rating [6, 33]: 8
Velvetleaf plant response rating [6, 21]: 10
Velvetleaf plant response rating [6, 22]: 0
Plant response rating, Velvetleaf [6, 23]: 5
Velvetleaf plant response rating [6, 34]: 5
Tall Mallow plant response rating [8, 29]: 85
Plant response rating, Guineagrass [11, 29]: 100
Plant response rating, Bermudagrass [12, 29]: 100
Cocklebur plant response rating [13, 17]: 0
Cocklebur plant response rating [13, 18]: 0
Cocklebur plant response rating (0 to 10 scale) [13, 32]: 0
Cocklebur plant response rating [13, 33]: 0
Cocklebur plant response rating [13, 21]: 0
Cocklebur plant response rating [13, 22]: 0
Plant response rating, Cocklebur [13, 23]: 0
Cocklebur plant response rating [13, 34]: 3
Plant response rating, P. morninglory [16, 29]: 65
